Experimental findings from patent US8188077B2, “Apoptosis-inducing agents for the treatment of cancer and immune and autoimmune diseases” (Abbott Laboratories, priority 2010, dated 2012) are described below.

This assay addresses T1, Bcl-2 protein (Homo sapiens, UniProt P10415, DELINS35-91DVEENRTEAPEGTESE, form not given).
T1 construct: fused on or other part: Bcl-xL (Q07817) residues 29-44 stand in place of Bcl-2's own unstructured loop 35-91; The C-terminal membrane anchor (208-239) is absent
Put plainly: Bcl-2 fluorescence polarization assay (FPA) binding. The following applies: 10 nM Bcl-2 protein, 1 nM fluorescein-labeled BAX peptide, room temperature, read-out: Bcl-2 FPA 11pt Ki. As for the experimental part:
Assays for the inhibition of Bcl-2 were performed in 96-well microtiter plates. Compounds of the instant invention were diluted in DMSO to concentrations between […] and 10 pM and introduced into each well of the plate. A mixture totaling 125 µL per well of assay buffer (20 mM phosphate buffer (pH 7.4), 1 mM EDTA, 0.05% PF-68), 10 nM of Bcl-2 protein (prepared according to the procedure described in PNAS 2001, 98, 3012-3017), 1 nM fluorescein-labeled BAX peptide (prepared in-house), and the DMSO solution of the compound of the instant invention was shaken for 2 minutes and placed in a LJL Analyst (LJL Bio Systems, CA. Polarization was measured at room temperature using a continuous Fluorescein lamp (excitation 485 nm, emission 530 nm). Ki values were calculated using Microsoft Excel.

SMILES strings stand for the structures. A value given as a limit tells only on which side of the number the result lay.

T1 sequence (P10415 with tags, fused parts or gaps with the stated changes): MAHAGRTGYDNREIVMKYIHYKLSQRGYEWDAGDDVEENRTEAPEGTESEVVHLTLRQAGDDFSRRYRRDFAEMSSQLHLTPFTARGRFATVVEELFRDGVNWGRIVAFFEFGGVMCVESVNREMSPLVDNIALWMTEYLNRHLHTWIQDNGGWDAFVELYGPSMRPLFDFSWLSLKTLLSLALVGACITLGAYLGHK

For `C[C@@H]1[C@@H](N(CCCc2ccccc2)C2CCN(c3ccc(C(=O)NS(=O)(=O)c4ccc(NC5CCOCC5)c([N+](=O)[O-])c4)cc3)CC2)C[C@H]2C[C@@H]1C2(C)C` [Example 45, N-{[3-nitro-4-(tetrahydro-2H-pyran-4-ylamino)phenyl]sulfonyl}-4-(4-{(3-phenylpropyl)[(1S,2S,3S,5R)-2,6,6-trimethylbicyclo[3.1.1]hept-3-yl]amino}piperidin-1-yl)benzamide], the Ki (usually the equilibrium dissociation constant of an inhibitor or competing ligand from its target) is 79 nM.

For the compound `O=C(NS(=O)(=O)c1ccc(NCC2CCOCC2)c([N+](=O)[O-])c1)c1ccc(N2CCC(=Cc3ccccc3-c3cn(C45CC6CC(CC(C6)C4)C5)nc3C(=O)N(c3ccccc3)c3ccccc3)CC2)cc1` [Example 69, 1-[adamantan-1-yl]-4-{2-[(1-{4-[({3-nitro-4-[(tetrahydro-2H-pyran-4-ylmethyl)amino]phenyl}sulfonyl)carbamoyl]phenyl}piperidin-4-ylidene)methyl]phenyl}-N,N-diphenyl-1H-pyrazole-3-carboxamide], the Ki worked out at 789 nM.

Regarding `O=C(NS(=O)(=O)c1ccc(NCC2CCCCC2)c([N+](=O)[O-])c1)c1ccc(N2CCN(CCC34CC5CC(CC(C5)C3)C4)CC2)cc1` [Example 58, 4-(4-{2-[adamantan-1-yl]ethyl}piperazin-1-yl)-N-({4-[(cyclohexylmethyl)amino]-3-nitrophenyl}sulfonyl)benzamide], the Ki is greater than 18700 nM.

As to `C[C@@H]1[C@@H](N(C(=O)CCc2ccccc2)C2CCN(c3ccc(C(=O)NS(=O)(=O)c4ccc(NCC5CCCCC5)c([N+](=O)[O-])c4)cc3)CC2)C[C@H]2C[C@@H]1C2(C)C` [Example 46, N-({4-[(cyclohexylmethyl)amino]-3-nitrophenyl}sulfonyl)-4-(4-{(3-phenylpropanoyl)[(1S,2S,3S,5R)-2,6,6-trimethylbicyclo[3.1.1]hept-3-yl]amino}piperidin-1-yl)benzamide], the Ki is 33 nM.

In the case of `CC1(C)[C@H]2CC=C(c3ccccc3CN3CCN(c4ccc(C(=O)NS(=O)(=O)c5ccc(NCC6CCOCC6)c([N+](=O)[O-])c5)cc4)CC3)[C@@H]1C2` [Example 27, 4-(4-{2-[(1R,5S)-6,6-dimethylbicyclo[3.1.1]hept-2-en-2-yl]benzyl}piperazin-1-yl)-N-({3-nitro-4-[(tetrahydro-2H-pyran-4-ylmethyl)amino]phenyl}sulfonyl)benzamide], the Ki is 27.1 nM.

`O=C(NS(=O)(=O)c1ccc(NCC2CCCCC2)c([N+](=O)[O-])c1)c1ccc2cc(-c3ccc(O)c(C45CC6CC(CC(C6)C4)C5)c3)ccc2c1` [Example 48, 6-{3-[adamantan-1-yl]-4-hydroxyphenyl}-N-({4-[(cyclohexylmethyl)amino]-3-nitrophenyl}sulfonyl)-2-naphthamide]: the Ki came out at 1390 nM.

Consider `O=C(NS(=O)(=O)c1ccc(NCC2CCOCC2)c([N+](=O)[O-])c1)c1ccc(N2CCN(Cc3ccccc3-c3ccc(C(=O)NC4CCCCCCC4)o3)CC2)cc1` [Example 29, N-cyclooctyl-5-{2-[(4-{4-[({3-nitro-4-[(tetrahydro-2H-pyran-4-ylmethyl)amino]phenyl}sulfonyl)carbamoyl]phenyl}piperazin-1-yl)methyl]phenyl}-2-furamide], for which the Ki worked out at 354 nM.

On to `Cc1cc(-c2ccccc2CN2CCN(c3ccc(C(=O)NS(=O)(=O)c4ccc(NCC5CCOCC5)c([N+](=O)[O-])c4)cc3)CC2)c2nc(C34CC5CC(CC(C5)C3)C4)cn2c1` [Example 25, 4-(4-{2-[2-(adamantan-1-yl)-6-methylimidazo[1,2-a]pyridin-8-yl]benzyl}piperazin-1-yl)-N-({3-nitro-4-[(tetrahydro-2H-pyran-4-ylmethyl)amino]phenyl}sulfonyl)benzamide], for which the Ki was determined as 979 nM.

For `O=C(NS(=O)(=O)c1ccc(NC2CCOCC2)c([N+](=O)[O-])c1)c1ccc(N2CC3CN(C(=O)C45CC6CC(CC(C6)C4)C5)CC32)cc1` [Example 44, 4-{1S,5S)-3-[adamantan-1-ylcarbonyl]-3,6-diazabicyclo[3.2.0]hept-6-yl}-N-{[3-nitro-4-(tetrahydro-2H-pyran-4-ylamino)phenyl]sulfonyl}benzamide], the Ki is greater than 6250 nM.

Regarding `O=C(NS(=O)(=O)c1ccc(NCC2CCCCC2)c([N+](=O)[O-])c1)c1ccc(N2CCN(C34CC5CC(CC(C5)C3)C4)CC2)cc1` [Example 54, 4-{4-[adamantan-1-yl]piperazin-1-yl}-N-({4-[(cyclohexylmethyl)amino]-3-nitrophenyl}sulfonyl)benzamide], the Ki is greater than 9730 nM.

Regarding `O=C(NS(=O)(=O)c1ccc(NC2CCOCC2)c([N+](=O)[O-])c1)c1ccc(N2CCN(C(=O)CC34CC5CC(CC(C5)C3)C4)CC2)cc1` [Example 81, 4-{4-[adamantan-1-ylacetyl]piperazin-1-yl}-N-{[3-nitro-4-(tetrahydro-2H-pyran-4-ylamino)phenyl]sulfonyl}benzamide], the Ki came out at 4730 nM.

Turning to `O=C(NS(=O)(=O)c1ccc(NCC2CCOCC2)c([N+](=O)[O-])c1)c1ccc(N2CCN(Cc3ccccc3C3=CC4CC3C3CCCC43)CC2)cc1` (centres unmarked) [Example 23, 4-(4-{2-[2,3,3a,4,7,7a-hexahydro-1H-4,7-methanoinden-5-yl]benzyl}piperazin-1-yl)-N-({3-nitro-4-[(tetrahydro-2H-pyran-4-ylmethyl)amino]phenyl}sulfonyl)benzamide], the Ki was less than 20 nM.

As to `CC1(C)[C@@H]2CC[C@@]1(C)CN(c1ccc(C(=O)NS(=O)(=O)c3ccc(NC4CCOCC4)c([N+](=O)[O-])c3)cc1)C2` [Example 79, N-{[3-nitro-4-(tetrahydro-2H-pyran-4-ylamino)phenyl]sulfonyl}-4-[(1R,5S)-1,8,8-trimethyl-3-azabicyclo[3.2.1]oct-3-yl]benzamide], the Ki came out at 1420 nM.

Consider `CC1(C)C2C=C(c3ccccc3CN3CCN(c4ccc(C(=O)NS(=O)(=O)c5ccc(NCC6CCOCC6)c([N+](=O)[O-])c5)cc4)CC3)C1(C(=O)Nc1ccccc1)CC2` (centres unmarked) [Example 35, 7,7-dimethyl-2-{2-[(4-{4-[({3-nitro-4-[(tetrahydro-2H-pyran-4-ylmethyl)amino]phenyl}sulfonyl)carbamoyl]phenyl}piperazin-1-yl)methyl]phenyl}-N-phenylbicyclo[2.2.1]hept-2-ene-1-carboxamide], for which the Ki turned out to be 21.7 nM.

For `O=C(NS(=O)(=O)c1ccc(NC2CCOCC2)c([N+](=O)[O-])c1)c1ccc(NC2C3CC4CC(C3)CC2C4)cc1` (centres unmarked) [Example 84, 4-[adamantan-2-ylamino]-N-{[3-nitro-4-(tetrahydro-2H-pyran-4-ylamino)phenyl]sulfonyl}benzamide], the Ki was 2380 nM.

Turning to `O=C(NS(=O)(=O)c1ccc(NCC2CCOCC2)c([N+](=O)[O-])c1)c1ccc(N2CCN(Cc3ccccc3-c3ccc(-c4nc(C56CC7CC(CC(C7)C5)C6)cs4)s3)CC2)cc1` [Example 63, 4-[4-(2-{5-[4-(adamantan-1-yl)-1,3-thiazol-2-yl]-2-thienyl}benzyl)piperazin-1-yl]-N-({3-nitro-4-[(tetrahydro-2H-pyran-4-ylmethyl)amino]phenyl}sulfonyl)benzamide], the Ki was 278 nM.

As for `CC1(C)[C@@H]2CC[C@@]1(CS(=O)(=O)NC(=O)c1ccc(N3CCN(Cc4ccccc4-c4ccc(Cl)cc4)CC3)cc1)C(=O)C2` [Example 59, 4-{4-[(4′-chlorobiphenyl-2-yl)methyl]piperazin-1-yl}-N-({[(1S,4R)-7,7-dimethyl-2-oxobicyclo[2.2.1]hept-1-yl]methyl}sulfonyl)benzamide], the Ki came out at 66.7 nM.
